By Emax is commonly meant the size of the effect at its maximum, as opposed to the concentration needed. As usually defined, the DC50 is the midpoint of the concentration-degradation curve.

The source of these data is patent US12661410B2, “Compounds for targeted degradation of RET” (C4 Therapeutics, Inc., priority 2020, dated 2026).

Residue numbers refer to the chain shown, from its start. Read-outs that look alike come from different tables or passages of the source.

The target of assay [1] is T1, RET (658-1114) (Homo sapiens, UniProt P07949).
T1 construct: 658-1114; expressed in transfected cells; host or cells: 293T.144 (293T cells, generated in-house)
T1 sequence (P07949 658-1114): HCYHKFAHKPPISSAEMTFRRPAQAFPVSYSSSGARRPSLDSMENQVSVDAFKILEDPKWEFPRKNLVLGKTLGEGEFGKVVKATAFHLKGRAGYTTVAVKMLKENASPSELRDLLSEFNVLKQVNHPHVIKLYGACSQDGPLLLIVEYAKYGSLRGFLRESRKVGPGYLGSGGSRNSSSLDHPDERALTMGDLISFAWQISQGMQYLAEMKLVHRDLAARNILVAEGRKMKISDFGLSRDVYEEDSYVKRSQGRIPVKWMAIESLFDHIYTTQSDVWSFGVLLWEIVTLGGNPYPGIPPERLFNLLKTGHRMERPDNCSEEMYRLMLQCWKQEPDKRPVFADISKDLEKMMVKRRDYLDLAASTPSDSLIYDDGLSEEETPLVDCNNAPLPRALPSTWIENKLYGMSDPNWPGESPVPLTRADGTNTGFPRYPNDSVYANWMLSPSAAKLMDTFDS
The experiment in a line: HiBiT-Degradation, RET wild-type degradation assay (Nano-Glo HiBiT Lytic), 293T.144 cells. In kind it is cell-based. The settings on record: for Emax / DC50: 6.0 hours; for Emax: read-out: 293T.144 RET (658-1114) 6.0 hours (Emax); for DC50: read-out: 293T.144 RET (658-1114) 6.0 hours (DC50). The essentials: (§1)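 HEK293T lines stably expressing HiBiT-tagged RET kinase domain (WT: 293T.144; G810R: 293T.165) were treated with degraders for 6 h in duplicate, 11-point half-log series from 10 μM top dose. Lysis with Nano-Glo HiBiT Lytic reagent, luminescence read; DC50 and Emax (% remaining protein) derived from dose-response curves.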
On the technique in general: HiBiT is a short tag that completes a luciferase, so light tracks the accessible tagged protein.

In assay [2] the target is T2, RET(KD: 658-1114 G810R) (Homo sapiens, UniProt P07949, G810R).
T2 construct: 658-1114; expressed in transfected cells; host or cells: 293T.165 (293T cells, generated in-house)
T2 sequence (P07949 658-1114 G810R): T1 sequence (P07949 658-1114) with G153R
The assay can be described thus: HiBiT-Degradation, RET G810R degradation assay (Nano-Glo HiBiT Lytic), 293T.165 cells. The assay is classed as cell-based. The settings on record: for Emax / DC50: 6.0 hours; for Emax: % remaining protein, read-out: 293T.165 RET(KD: 658-1114 G810R) 6.0 hours (Emax); for DC50: read-out: 293T.165 RET(KD: 658-1114 G810R) 6.0 hours (DC50). The gist of the method: as §1

[3] abbreviates: half-maximal degradation concentration.

As to `CCC1(C(=O)NC2CCC2)CCN(c2ccc(-c3nc(-c4cnn([C@H]5C[C@](F)(CN6CCN(c7ccc(N[C@H]8CCC(=O)NC8=O)cc7F)CC6)C5)c4)cn4ncc(C#N)c34)cn2)CC1` [Compound 186, 1-[5-[3-cyano-6-[1-[3-[[4-[4-[[(3S)-2,6-dioxo-3-piperidyl]amino]-2-fluoro-phenyl]piperazin-1-yl]methyl]-3-fluoro-cyclobutyl]pyrazol-4-yl]pyrazolo[1,5-a]pyrazin-4-yl]-2-pyridyl]-N-cyclobutyl-4-ethyl-piperidine-4-carboxamide], the “293T.144 RET (658-1114) 6.0 hours (IP) [nM]” value (shortened to “293T.144 RET”) in assay [1] was “++++ (<50 nM = ++++)”. Moreover, the Emax in assay [1] (% remaining protein) and in assay [2] was under 50% throughout. Further, the DC50 in assay [1] (setting [3]) and in assay [2] (setting [3]) was under 50 nM each time. Further, the “293T.165 RET(KD: 658-1114 G810R) 6.0 hours (IP) [nM]” value in assay [2] was “++++ (<50 nM = ++++)”.

Regarding `CCC1(C(=O)NC2CCOCC2)CCN(c2ccc(-c3nc(-c4cnn([C@H]5CC[C@H](N6CCC(c7ccc(N[C@@H]8CCC(=O)NC8=O)cc7F)CC6)CC5)c4)cn4ncc(C#N)c34)cn2)CC1` (stereo in doubt) [Compound 143, 1-(5-(3-cyano-6-(1-((1R,4r)-4-(4-(4-(((R)-2,6-dioxopiperidin-3-yl)amino)-2-fluorophenyl)piperidin-1-yl)cyclohexyl)-1H-pyrazol-4-yl)pyrazolo[1,5-a]pyrazin-4-yl)pyridin-2-yl)-4-ethyl-N-(tetrahydro-2H-pyran-4-yl)piperidine-4-carboxamide], the “293T.144 RET” value in assay [1] is recorded as “++++ (<50 nM = ++++)”. The Emax in assay [1] (% remaining protein) and in assay [2] was under 30% each time. The DC50 in assay [1] (setting [3]) and in assay [2] (setting [3]) was under 50 nM throughout. Also, in assay [2], the “293T.165 RET(KD: 658-1114 G810R) 6.0 hours (IP) [nM]” value is “++++ (<50 nM = ++++)”.

Take `CCC1(NC(=O)C(C)C)CCN(c2ccc(-c3nc(-c4cnn([C@H]5CC[C@@H](N6CCN(c7ccc8c(N9CCC(=O)NC9=O)nn(C)c8c7F)CC6)CC5)c4)cn4ncc(C#N)c34)cn2)CC1` (single isomer, unassigned) [Compound 125, N-(1-(5-(3-Cyano-6-(1-((1s, 4s)-4-(4-(3-(2,4-dioxotetrahydropyrimidin-1(2H)-yl)-7-fluoro-1-methyl-1H-indazol-6-yl)piperazin-1-yl)cyclohexyl)-1H-pyrazol-4-yl)pyrazolo[1,5-a]pyrazin-4-yl)pyridin-2-yl)-4-ethylpiperidin-4-yl)isobutyramide]: in assay [1], the “293T.144 RET” value is “++++ (<50 nM = ++++)”. In addition, the Emax in assay [1] (% remaining protein) and in assay [2] was under 30% each time. In addition, the DC50 in assay [1] (setting [3]) and in assay [2] (setting [3]) was under 50 nM in each case. Also, in assay [2], the “293T.165 RET(KD: 658-1114 G810R) 6.0 hours (IP) [nM]” value is “++++ (<50 nM = ++++)”.

`CCC1(c2ccccn2)CCN(c2ccc(-c3nc(-c4cnn(C5CCN(C(=O)CN6CCC(c7ccc(NC8CCC(=O)NC8=O)cc7F)CC6)CC5)c4)cn4ncc(C#N)c34)cn2)CC1` (stereo not drawn) [Compound 110, 6-[1-[1-[2-[4-[4-[(2,6-dioxo-3-piperidyl)amino]-2-fluoro-phenyl]-1-piperidyl]acetyl]-4-piperidyl]pyrazol-4-yl]-4-[6-[4-ethyl-4-(2-pyridyl)-1-piperidyl]-3-pyridyl]pyrazolo[1,5-a]pyrazine-3-carbonitrile]: in assay [1], the “293T.144 RET” value was “++++ (<50 nM = ++++)”. For the same compound, the Emax in assay [1] (% remaining protein) and in assay [2] was under 30% throughout. Also, the DC50 is under 50 nM in assay [1] (setting [3]) and under 100 nM in assay [2] (setting [3]). For the same compound, the “293T.165 RET(KD: 658-1114 G810R) 6.0 hours (IP) [nM]” value in assay [2] is on record as “+++ (<100 nM = +++)”.

For `Cn1nc(N2CCC(=O)NC2=O)c2ccc(C3CCN(CC(=O)N4CCN(c5ccc(-c6cc(-c7ccc(N8CCN(Cc9ccccn9)CC8)nc7)c7c(C#N)cnn7c6)cc5)CC4)CC3)cc21` [Compound 65, 6-[4-[4-[2-[4-[3-(2,4-dioxohexahydropyrimidin-1-yl)-1-methyl-indazol-6-yl]-1-piperidyl]acetyl]piperazin-1-yl]phenyl]-4-[6-[4-(2-pyridylmethyl)piperazin-1-yl]-3-pyridyl]pyrazolo[1,5-a]pyridine-3-carbonitrile], in assay [1] (HiBiT-Degradation), the “293T.144 RET” value is reported as “++++ (< 50 nM = ++++)”, the DC50 is under 50 nM and the maximal response (Emax) was under 30%. Also, the Emax in assay [2] was under 50%. Moreover, the DC50 in assay [2] (setting [3]) is under 100 nM. Further, in assay [2] (HiBiT-Degradation), the “293T.165 RET(KD: 658-1114 G810R) 6.0 hours (Emax)” value was “+++ (<50% = +++)”, the “293T.165 RET(KD: 658-1114 G810R) 6.0 hours (IP) [nM]” value is given as “+++ (<100 nM = +++)” and the DC50 was under 100 nM.

With `CCC1(C(=O)NC(C)C)CCN(c2ccc(-c3nc(-c4cnn(C5CCN(C(=O)CC6(O)CCN(c7ccc(NC8CCC(=O)NC8=O)cc7Cl)CC6)CC5)c4)cn4ncc(C#N)c34)cn2)CC1` (stereo not drawn) [Compound 14, 1-(5-(6-(1-(1-(2-(1-(2-Chloro-4-((2,6-dioxopiperidin-3-yl)amino)phenyl)-4-hydroxypiperidin-4-yl)acetyl)piperidin-4-yl)-1H-pyrazol-4-yl)-3-cyanopyrazolo[1,5-a]pyrazin-4-yl)pyridin-2-yl)-4-ethyl-N-isopropylpiperidine-4-carboxamide], in assay [1] (HiBiT-Degradation), the “293T.144 RET” value is “++++ (< 50 nM = ++++)”, the DC50 is under 50 nM and the Emax was under 30%. Besides, the Emax in assay [2] is under 30%. Besides, in assay [2] (setting [3]), the DC50 was under 50 nM. Besides, in assay [2] (HiBiT-Degradation), the “293T.165 RET(KD: 658-1114 G810R) 6.0 hours (Emax)” value is “++++ (< 30% = ++++)”, the “293T.165 RET(KD: 658-1114 G810R) 6.0 hours (IP) [nM]” value is “++++ (< 50 nM = ++++)” and the DC50 was under 50 nM.

Regarding `COc1cc(N2CCN([C@H]3CC[C@H](n4cc(-c5cn6ncc(C#N)c6c(-c6ccc(N7CC8CC(C7)N8Cc7ccccc7S(C)(=O)=O)nc6)n5)cn4)CC3)CC2)c(F)cc1NC1CCC(=O)NC1=O` (stereo partly drawn) [Compound 217, 6-[1-[4-[4-[4-[(2,6-dioxo-3-piperidyl)amino]-2-fluoro-5-methoxy-phenyl]piperazin-1-yl]cyclohexyl]pyrazol-4-yl]-4-[6-[6-[(2-methylsulfonylphenyl)methyl]-3,6-diazabicyclo[3.1.1]heptan-3-yl]-3-pyridyl]pyrazolo[1,5-a]pyrazine-3-carbonitrile], the “293T.144 RET” value in assay [1] is “++++ (<50 nM = ++++)”. Further, the Emax in assay [1] (% remaining protein) and in assay [2] was under 30% in each case. The DC50 in assay [1] (setting [3]) was under 50 nM; in assay [2] (setting [3]), under 100 nM. Further, the “293T.165 RET(KD: 658-1114 G810R) 6.0 hours (IP) [nM]” value in assay [2] was “++++ (<50 nM = ++++)”.

Turning to `CC(C)NC(=O)C1(C)CCN(c2ccc(-c3cc(-c4ccc(N5CCN(C(=O)CC6(O)CCN(c7ccc(NC8CCC(=O)NC8=O)cc7F)CC6)CC5)cc4)cn4ncc(C#N)c34)cn2)CC1` (stereo not drawn) [Compound 32, 1-(5-(3-Cyano-6-(4-(4-(2-(1-(4-((2,6-dioxopiperidin-3-yl)amino)-2-fluorophenyl)-4-hydroxypiperidin-4-yl)acetyl)piperazin-1-yl)phenyl)pyrazolo[1,5-a]pyridin-4-yl)pyridin-2-yl)-N-isopropyl-4-methylpiperidine-4-carboxamide], in assay [1] (HiBiT-Degradation), the “293T.144 RET” value is on record as “++++ (< 50 nM = ++++)”, the DC50 was under 50 nM and the Emax is under 30%. Moreover, the Emax in assay [2] was under 50%. The DC50 in assay [2] (setting [3]) was under 50 nM. Moreover, in assay [2] (HiBiT-Degradation), the “293T.165 RET(KD: 658-1114 G810R) 6.0 hours (Emax)” value was “+++ (<50% = +++)”, the “293T.165 RET(KD: 658-1114 G810R) 6.0 hours (IP) [nM]” value is reported as “++++ (< 50 nM = ++++)” and the DC50 was under 50 nM.
